Measured values: patent US20210077382A1, “COMPOSITIONS, DEVICES, AND METHODS FOR THE TREATMENT OF OPIOID-RECEPTOR-MEDIATED CONDITIONS” (Opiant Phamaceuticals, Inc., priority 2016, published 2021)

Assay: Clinical pharmacokinetic crossover study of IN, IM and oral naltrexone; plasma naltrexone and 6β-naltrexol by LC-MS/MS
Source text: Study Goals. […] Secondary endpoints included adverse events (AEs), vital signs (heart rate, sitting blood pressure, and respiration rate), electrocardiogram (ECG), clinical laboratory changes and nasal irritation using the nasal irritation scale.
Study design. […] This was an in-patient open-label, crossover study involving approximately 14 healthy volunteers. […] Subjects stayed in the in-patient facility for 13 days to complete the entire study. Subjects were called 3 to 5 days after discharge to inquire concerning AEs and concomitant medications since discharge. Informed consent was obtained from all subjects, and all were screened for eligibility to participate in the study, including medical history, physical examination, clinical chemistry, coagulation markers, hematology, infectious disease serology, urinalysis, urine drug and alcohol toxicology screen, vital signs and ECG.
On days of study drug administration, a 12-lead ECG was performed approximately 1 hour prior to dosing and at approximately 1 and 4 hours post-dose. Vital signs were measured pre-dose and about 1 and 4 hours post-dose.
Study Drugs and Dosing. […] The IN (40 mg/mL) formulations were made by the staff pharmacist at Vince & Associates; the vehicle for the IN formulations was sterile water for injection. The IM formulation (2 mg/mL) was made by the staff pharmacist at Vince & Associates; the vehicle was sterile saline for injection.
Subjects stayed in the in-patient facility for 13 days to complete the entire study and were discharged 2 days after the fourth dose.
PK Assessments. […] Plasma was separated from whole blood and stored frozen at […] until assayed.
Analysis. […] Dose-adjusted values for AUCs and Cmax were calculated. The relative extent of IN and PO absorption (IN and PO versus IM) will be estimated from the dose-corrected AUCs.

In the case of `Oc1ccc2c3c1O[C@H]1[C@H](O)CC[C@@]4(O)[C@@H](C2)N(CC2CC2)CC[C@]314` [6β-naltrexol], the “λz of 6β-naltrexol, mean (CV %)” value (naltrexone 4 mg IN plus […] Intravail, N = 12) is reported as 0.0553 (15.1) 1/h, the “AUC0-inf of 6β-naltrexol, mean (CV %)” value (naltrexone 4 mg IN, N = 13) is reported as 0.044 µg·h/mL and the “AUC0-inf/Dose of 6β-naltrexol, mean (CV %)” value (naltrexone 4 mg IN, N = 13) is reported as 12.2 (23.1) h · ng/mL/mg. For the same molecule, the “AUC0-t of 6β-naltrexol, mean (CV %)” value (naltrexone 4 mg IN, N = 13) was 40.3 (23.3) h · ng/mL, the “AUC0-t/Dose of 6β-naltrexol, mean (CV %)” value (naltrexone 4 mg IN, N = 13) was 11.1 (23.3) h · ng/mL/mg and the “AUCextrap of 6β-naltrexol, mean (CV %)” value (naltrexone 4 mg IN, N = 13) was 8.57 (46.1) %. The “Cmax of 6β-naltrexol, mean (CV %)” value (naltrexone 4 mg IN, N = 13) was 3.01 (33.2) ng/mL, the “Cmax/Dose of 6β-naltrexol, mean (CV %)” value (naltrexone 4 mg IN, N = 13) was 0.833 ng/mL/mg and the “Tmax of 6β-naltrexol, median (minimum, maximum)” value (naltrexone 4 mg IN, N = 13) was 2.00 h. For the same molecule, the “t1/2 of 6β-naltrexol, mean (CV %)” value (naltrexone 4 mg IN, N = 13) was 13.7 (22.7) h, the “λz of 6β-naltrexol, mean (CV %)” value (naltrexone 4 mg IN, N = 13) was 0.0530 h⁻¹ and the “Cmax/Dose of 6β-naltrexol, mean (CV %)” value (naltrexone 4 mg IN, N = 13, listed as 6β-Naltrexol) was 0.833 (33.2) ng/mL/mg. For the same molecule, the “Mean concentration of 6β-naltrexol” value (naltrexone 4 mg IN, hour 0) was 0 ng/mL, the “Mean concentration of 6β-naltrexol” value (naltrexone 4 mg IN, hour 0.042) was 0 ng/mL and the “Mean concentration of 6β-naltrexol” value (naltrexone 4 mg IN, hour 0.083) was 0.0321 ng/mL. The “Mean concentration of 6β-naltrexol” value (naltrexone 4 mg IN, hour 0.17) was 0.196 ng/mL, the “Mean concentration of 6β-naltrexol” value (naltrexone 4 mg IN, hour 0.25) was 0.45 ng/mL and the “Mean concentration of 6β-naltrexol” value (naltrexone 4 mg IN, hour 0.33) was 0.693 ng/mL. The “Mean concentration of 6β-naltrexol” value (naltrexone 4 mg IN, hour 0.5) was 1.11 ng/mL, the “Mean concentration of 6β-naltrexol” value (naltrexone 4 mg IN, hour 0.75) was 1.82 ng/mL and the “Mean concentration of 6β-naltrexol” value (naltrexone 4 mg IN, hour 1) was 1.83 ng/mL. For the same molecule, the “Mean concentration of 6β-naltrexol” value (naltrexone 4 mg IN, hour 2) was 2.68 ng/mL, the “Mean concentration of 6β-naltrexol” value (naltrexone 4 mg IN, hour 3) was 2.61 ng/mL and the “Mean concentration of 6β-naltrexol” value (naltrexone 4 mg IN, hour 4) was 2.37 ng/mL. The “Mean concentration of 6β-naltrexol” value (naltrexone 4 mg IN, hour 6) was 1.97 ng/mL, the “Mean concentration of 6β-naltrexol” value (naltrexone 4 mg IN, hour 8) was 1.62 ng/mL and the “Mean concentration of 6β-naltrexol” value (naltrexone 4 mg IN, hour 12) was 1.26 ng/mL. The “Mean concentration of 6β-naltrexol” value (naltrexone 4 mg IN, hour 16) was 0.919 ng/mL, the “Mean concentration of 6β-naltrexol” value (naltrexone 4 mg IN, hour 24) was 0.602 ng/mL and the “Mean concentration of 6β-naltrexol” value (naltrexone 4 mg IN, hour 30) was 0.418 ng/mL. The “Mean concentration of 6β-naltrexol” value (naltrexone 4 mg IN, hour 36) was 0.292 ng/mL, the “Mean concentration of 6β-naltrexol” value (naltrexone 4 mg IN, hour 48) was 0.184 ng/mL and the “AUC0-inf of 6β-naltrexol, mean (CV %)” value (naltrexone 50 mg Oral, N = 10) was 0.675 µg·h/mL. The “AUC0-inf/Dose of 6β-naltrexol, mean (CV %)” value (naltrexone 50 mg Oral, N = 10) was 14.9 (19.9) h · ng/mL/mg, the “AUC0-t of 6β-naltrexol, mean (CV %)” value (naltrexone 50 mg Oral, N = 10) was 614 (19.5) h · ng/mL and the “AUC0-t/Dose of 6β-naltrexol, mean (CV %)” value (naltrexone 50 mg Oral, N = 10) was 13.6 (19.5) h · ng/mL/mg. The “AUCextrap of 6β-naltrexol, mean (CV %)” value (naltrexone 50 mg Oral, N = 10) was 8.79 (57.3) %, the “Cmax of 6β-naltrexol, mean (CV %)” value (naltrexone 50 mg Oral, N = 10) was 90.7 ng/mL and the “Cmax/Dose of 6β-naltrexol, mean (CV %)” value (naltrexone 50 mg Oral, N = 10) was 2.00 ng/mL/mg. For the same molecule, the “Tmax of 6β-naltrexol, median (minimum, maximum)” value (naltrexone 50 mg Oral, N = 10) was 0.63 h, the “t1/2 of 6β-naltrexol, mean (CV %)” value (naltrexone 50 mg Oral, N = 10) was 13.9 (15.9) h and the “λz of 6β-naltrexol, mean (CV %)” value (naltrexone 50 mg Oral, N = 10) was 0.0510 (15.8) 1/h. For the same molecule, the “Cmax/Dose of 6β-naltrexol, mean (CV %)” value (naltrexone 50 mg Oral, N = 10, listed as 6β-Naltrexol) was 2.00 (30.3) ng/mL/mg, the “Mean concentration of 6β-naltrexol” value (naltrexone 50 mg Oral, hour 0) was 0.0454 ng/mL and the “Mean concentration of 6β-naltrexol” value (naltrexone 50 mg Oral, hour 0.042) was 0.0448 ng/mL. The “Mean concentration of 6β-naltrexol” value (naltrexone 50 mg Oral, hour 0.083) was 1.4 ng/mL, the “Mean concentration of 6β-naltrexol” value (naltrexone 50 mg Oral, hour 0.17) was 14.2 ng/mL and the “Mean concentration of 6β-naltrexol” value (naltrexone 50 mg Oral, hour 0.25) was 31.6 ng/mL. For the same molecule, the “Mean concentration of 6β-naltrexol” value (naltrexone 50 mg Oral, hour 0.33) was 45.5 ng/mL, the “Mean concentration of 6β-naltrexol” value (naltrexone 50 mg Oral, hour 0.5) was 68.7 ng/mL and the “Mean concentration of 6β-naltrexol” value (naltrexone 50 mg Oral, hour 0.75) was 60.8 ng/mL. The “Mean concentration of 6β-naltrexol” value (naltrexone 50 mg Oral, hour 1) was 58.6 ng/mL, the “Mean concentration of 6β-naltrexol” value (naltrexone 50 mg Oral, hour 2) was 54 ng/mL and the “Mean concentration of 6β-naltrexol” value (naltrexone 50 mg Oral, hour 3) was 45.8 ng/mL. For the same molecule, the “Mean concentration of 6β-naltrexol” value (naltrexone 50 mg Oral, hour 4) was 38 ng/mL, the “Mean concentration of 6β-naltrexol” value (naltrexone 50 mg Oral, hour 6) was 28.5 ng/mL and the “Mean concentration of 6β-naltrexol” value (naltrexone 50 mg Oral, hour 8) was 22.2 ng/mL. For the same molecule, the “Mean concentration of 6β-naltrexol” value (naltrexone 50 mg Oral, hour 12) was 15.4 ng/mL, the “Mean concentration of 6β-naltrexol” value (naltrexone 50 mg Oral, hour 16) was 11.4 ng/mL and the “Mean concentration of 6β-naltrexol” value (naltrexone 50 mg Oral, hour 24) was 8.14 ng/mL. For the same molecule, the “Mean concentration of 6β-naltrexol” value (naltrexone 50 mg Oral, hour 30) was 5.93 ng/mL, the “Mean concentration of 6β-naltrexol” value (naltrexone 50 mg Oral, hour 36) was 4.35 ng/mL and the “Mean concentration of 6β-naltrexol” value (naltrexone 50 mg Oral, hour 48) was 2.43 ng/mL. The “Dose-adjusted Cmax of 6β-naltrexol after oral administration, higher than after IN and IM doses” value (oral vs IN and IM) was “approximately 2 fold”.
